Our source for the relative viability values is the supplement of paper PMC10307832.

Common to all, as to assay: relative viability (nuclei count vs DMSO), 5 days (fraction); higher = more cells survive
Compound in assay [1]: C=CCn1c(=O)c2cnc(Nc3ccc(N4CCN(C)CC4)cc3)nc2n1-c1cccc(C(C)(C)O)n1 [Adavosertib] + CC1(C)CCC(c2ccc(Cl)cc2)=C(CN2CCN(c3ccc(C(=O)NS(=O)(=O)c4ccc(N[C@H](CCN5CCOCC5)CSc5ccccc5)c(S(=O)(=O)C(F)(F)F)c4)cc3)CC2)C1 [Navitoclax] (partner 0.5 µM)
In a few lines:
(§1)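 Five library-drug doses in √10 steps were combined with a fixed anchor-drug dose, or a single drug was given alone, by pin tool to lung cancer cell lines in 1536-well plates the day after seeding. Nuclei were stained and counted after 5 days. Relative viability is the nuclei count in treated wells over that in vehicle wells, taken as the median of duplicate plates.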

Compound in assay [2]: C=CCn1c(=O)c2cnc(Nc3ccc(N4CCN(C)CC4)cc3)nc2n1-c1cccc(C(C)(C)O)n1 [Adavosertib] + COc1cccc2cc(-c3nc([C@H]4CC[C@H](C(=O)O)CC4)n4ncnc(N)c34)[nH]c12 [OSI-027] (partner 0.5 µM)
In a few lines:
as §1

Compound in assay [3]: COc1nc(N)nc2c1ncn2[C@@H]1O[C@H](CO)[C@@H](O)[C@@H]1O [Nelarabine] + CC(=O)c1c(C)c2cnc(Nc3ccc(N4CCNCC4)cn3)nc2n(C2CCCC2)c1=O [Palbociclib] (partner 0.5 µM)
In a few lines: as §1

Compound in assay [4]: COc1nc(N)nc2c1ncn2[C@@H]1O[C@H](CO)[C@@H](O)[C@@H]1O [Nelarabine] + C[C@]1(O)C[C@@H](c2nc(-c3ccc4ccc(-c5ccccc5)nc4c3)c3c(N)nccn32)C1 [Linsitinib] (partner 1 µM)
In a few lines: as §1

Take EMC-BAC-2: the relative viability was determined as 1.22 in assay [1] (first compound 0.01 µM); 1.12 in assay [1] (first compound 0.03162 µM); 1.2 in assay [1] (first compound 0.1 µM); 1.19 in assay [1] (first compound 0.3162 µM); 0.375 in assay [2] (first compound 0.01 µM); 0.412 in assay [2] (first compound 0.03162 µM). Moreover, the relative viability was 0.396 in assay [2] (first compound 0.1 µM); 0.307 in assay [2] (first compound 0.3162 µM); 0.539 in assay [3] (first compound 0.01 µM); 0.514 in assay [3] (first compound 0.03162 µM); 0.512 in assay [3] (first compound 0.1 µM); 0.529 in assay [3] (first compound 0.3162 µM). The relative viability in assay [3] (first compound 1 µM) is 0.514; in assay [4] (first compound 0.01 µM), 0.958; in assay [4] (first compound 0.03162 µM), 0.781; in assay [4] (first compound 0.1 µM), 0.83; in assay [4] (first compound 0.3162 µM) it was 0.831; in assay [4] (first compound 1 µM), 0.859.
